Assay results from US9290688B2, “Alkaline microbial enhanced oil recovery” (GEO FOSSIL FUELS, LLC, priority 2011, dated 2016).
Numbered stars: 1 amine (or outer) side, 2 acyl side, 3 side chain; on linkers, the order of the positions; unused ones are H or OH. Bridge positions count the residues as written; N and C are the ends. Square brackets hold non-standard residues; d marks the D form. Peptide text beside a SMILES is read from it. X1 = CC(C)CCCCCCCCC[C@H](CC(=O)[*:1])O[*:2]

How the values were obtained:
[1] = biological target: T1, 3-ketothiolase I (Rattus norvegicus, UniProt P13437); settings: cited from earlier work
T1 sequence (P13437 1-397): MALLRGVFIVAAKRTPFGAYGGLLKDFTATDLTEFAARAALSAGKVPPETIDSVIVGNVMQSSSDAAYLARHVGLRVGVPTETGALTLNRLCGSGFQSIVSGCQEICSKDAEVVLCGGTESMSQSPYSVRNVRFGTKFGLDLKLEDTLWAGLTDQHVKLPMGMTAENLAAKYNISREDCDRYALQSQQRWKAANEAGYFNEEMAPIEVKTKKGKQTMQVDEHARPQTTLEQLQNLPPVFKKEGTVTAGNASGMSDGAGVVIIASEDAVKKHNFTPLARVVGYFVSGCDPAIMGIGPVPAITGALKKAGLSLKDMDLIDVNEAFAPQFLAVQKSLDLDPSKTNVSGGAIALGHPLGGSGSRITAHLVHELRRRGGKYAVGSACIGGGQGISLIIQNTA

[2] = system: Rhodococcus rhodochrous ATCC #53968; assay: Growth of bacteria on crude oil with inhibitors, optical density at 600 nm; type: cell-based
Description: (§1) An oil degrading microorganism was used to evaluate the use of chemical inhibitors to slow the utilization of hydrocarbons in petroleum. In a non-limiting example, three different chemical compounds that have been reported to inhibit beta-oxidation were tested in oil and culture medium on a petroleum sample with a strain of Rhodococcus rhodochrous ATCC #53968 in m9 minimal medium. To test the ability of each chemical inhibitor to slow the consumption of fatty acids a culture of bacteria was grown on a crude oil sample for a period of three days with crude petroleum oil as the only carbon source. Four separate flasks were set up, each with an oil to aqueous media ratio of 1 to 5 (10 ml of crude oil to 50 ml of culture medium). Each of the three chemical inhibitors was added to a separate flask and a fourth flask was allowed to digest without the addition of a chemical inhibitor as a control. The flasks were shaken at a room temperature of about 25° C. under aerobic conditions. The progress of the microbial digestion was monitored by the optical density at 600 nm and by visual inspection of the brown oil color in the aqueous phase. Three days after the addition of inhibitors, or a total of six days of incubation with oil, a small sample of oil (0.31 g) was removed. A second sample of the same size was remover after another 6 days. The organic acids were extracted from each oil sample with 1% NaOH in 70% ethanol. The samples were shaken vigorously for one minute. The aqueous extract material was then extracted with hexane to remove any trace of oil. The samples of extracted organic acids were then dried under vacuum and converted to methyl esters with BF3 in methanol.
Digestion with the bacteria increases the total amount of carboxylic acids in all the samples. The digestions with the chemical beta-oxidation inhibitors produce about the same or a little more total methyl ester peaks than the bacterial digestion without an inhibitor. […] The later eluting peaks increase at a faster rate with the inhibitors than without. For example, the 12 day sample with no inhibitor increase from 5.9 to 45.9 area units for peaks up to 13 minutes. The sample with the acrylic acid inhibitor has an increase of from 5.9 to 43.7 area units, which is less than without inhibitor. The later eluting peaks increase from 3.6 to 14.3 without the inhibitor, but with acrylic acid the later peak areas increase to 22.5 area units. […] After 6 days of digestion the optical density had reached 2.23 for the uninhibited digestion as compared to 0.49 for the acrylic acid inhibited sample and 1.84 for the 2-bromooctanoic acid and 2.4 for the 2-bromohexadeconoic acid. After 12 days of digestion the uninhibited sample had reached 4.0 and the acrylic acid had increased to 1.7 and 2.2 and 2.4 for the other two inhibitors. Therefore, by this experimental analysis one can determine which inhibitors increase the carboxylic acid content or the acid number of the oil fastest with the least amount of oil consumption. The oil consumption can be determined by quantitation of remaining oil or by growth of bacteria were oil is the only carbon source. It appears that all the inhibitors helped reduce the utilization of fatty acids and the consumption of oil while producing an increase in acid number.

[3] = system: Rhodococcus rhodochrous ATCC #53968; assay: End of digestion: oil and aqueous volumes, acid number by alcoholic alkaline extraction and back titration; type: cell-based; settings: one ml of oil, alcoholic alkaline extraction, back titration; acrylic acid value per gram of oil emulsion
Description: as §1, with “The samples were shaken vigorously for one minute. The aqueous extract material was then extracted with hexane to remove any trace of oil. The samples of extracted organic acids were then dried under vacuum and converted to methyl esters with BF3 in methanol.” left out
At the end of the experiment the oil and water were separated and the volume determined. […] This would have under reported the amount of methyl esters determined by GC analysis. The amount of aqueous phase was determined to be 22.5 ml for the acrylic acid sample and 46 ml, 48 ml and 47.5 ml for the others. […] The calculated acid number for the uninhibited digestion was 5 mg of KOH per gram. The other two inhibited digestions were analyzed to be 4.5 mg for the 2-bromooctanoic acid and 6.5 for the 2-bromohexadecanoic acid inhibited digestion. The undigested oil was determined to have an acid number of 6.5 mg of KOH by analysis of a one gram sample and a 10 gram sample. […]

[4] = system: Rhodococcus rhodochrous ATCC #53968; assay: Digestion of Red River crude oil with and without beta-oxidation inhibitors; GC of methyl esters of extracted organic acids; type: cell-based; settings: for Total GC (all peaks integrated by the GC integrator): 0.31 g oil sample; for conv. To umoles FA: approximately 1.0 micromoles per 100 area units; for Cal. AN (calculated acid number): estimated from GC areas
Description: as §1
The mixtures of methyl esters were analyzed by GC (gas chromatography) using a HP (Hewlett Packard) 5890 GC with an Agilent Technologies capillary column, HP-5 (crosslinked 5% PH) ME Siloxane 0.25 micrometer coating with a length of 30 meter and a column ID (internal diameter) of 0.32 mm. Helium was used as a carrier gas. Detection was by a FID detector and integration of peak areas was done with a HP 3396 integrator. The temperature program held an initial temperature of 40° C. for 1.0 minutes then increased at 15 degrees per minute to 280° C., and finally held at a temperature of 280° C. for 5 minutes. To quantify the amount of organic acids extracted by this procedure, a stock solution of 2-bromooctanoate and 2-bromohexadecanoate were added to a sample of undigested Red River crude petroleum oil and then extracted by the same procedure as the bio-digested oil samples. The average area for theses two organic acids was used to estimate the amount of organic acids in micromoles per area unit determined by the GC integrator. The number was calculated to be approximately 1.0 micromoles per 100 area units. The area units for each of the GC peaks are list in Table 2. This number was used to estimate the micromoles organic acids extracted from the oil. This estimate was used to calculate the number of mg of KOH that equaled the number of micromoles of organic acid estimated. This number is listed on the last row in Table 2 as the calculated AN (acid number) for each digestion experiment. These estimated numbers are only based on organic acids that are hydrophobic enough to stay in the oil phase and not move into the aqueous phase. Organic acids measured include the carboxylic acids made by the bacteria and that have been secreted out of the cell and have migrated back to the oil phase. They are also hydrocarbons that are small enough to be extracted into the ethanol aqueous extraction solvent. This number is likely to be less than the total acid number (TAN), a measure often used to evaluate crude petroleum for amenability to alkaline waterflooding.
The earlier eluting peaks are believed to represent methyl ester of lighter hydrocarbon carboxylic acids and the later eluting peaks are believed to represent methyl ester of the heavier organic acids. […]

[5] = system: 3-ketoacyl-CoA thiolase; settings: cited from earlier work
[6] = 100, pH 10
Description: Production of rhamnolipid biosurfactant was tested in engineered strains using the oil spreading assay (Fang et al DOE report 2007). Cells were grown three days at 30° C. in YCA-10 medium (per liter: 25 g NaCl, 5 g yeast extract, 5 g casamino Acids, 5 g Na2CO3, 1 g sodium glutamate, 1 g NH4Cl, 1 g KH2PO4, 1 g KCl, 200 mg MgSO4.7H2O, 36 mg FeCl2.4H2O, 0.36 mg MnCl.4H2O, adjusted to pH10.0 with KOH) containing 5 μg/ml chloramphenicol. For oil spreading assays, 50 mls of distilled water was dispensed into a 15 cm petri dish and 50 μl of petroleum oil was added to the surface of the water. A 10 μl drop of medium or culture suspension was added to the surface of the oil, and the diameter of the clear zone (if any) was measured after 2 minutes.

Structure (SMILES): CCCCCCC(Br)C(=O)O (racemic) [DL-2-bromooctanoate]
- effect on 3-ketothiolase I [1]: complete and irreversible inactivation

Structure (SMILES): CCCCCCCCCCCCCCC(Br)C(=O)O (stereo not shown) [Br C16, 2-bromohexadecanoic acid]
- optical density ([2]; after 6 days of digestion, crude oil only carbon source): 2.4
- optical density ([2]; after 12 days of digestion): 2.4
- final analysis acid number [3]: 6.5 mg KOH per gram
- GC peak area, retention time 4.5 ([4]; 6 days): 0.226 area units
- GC peak area, retention time 5.6 ([4]; 6 days): 1.099 area units
- GC peak area, retention time 6.6 ([4]; 6 days): 3.049 area units
- GC peak area, retention time 7.6 ([4]; 6 days): 2.553 area units
- GC peak area, retention time 8.2 ([4]; 6 days): 0.705 area units
- GC peak area, retention time 8.5 ([4]; 6 days): 1.395 area units
- GC peak area, retention time 9.4 ([4]; 6 days): 1.131 area units
- GC peak area, retention time 10.2 ([4]; 6 days): 1.11 area units
- GC peak area, retention time 11 ([4]; 6 days): 4.105 area units
- GC peak area, retention time 11.5 ([4]; 6 days): 2.76 area units
- GC peak area, retention time 12.5 ([4]; 6 days): 4.8 area units
- GC peak area, retention time 13.2 ([4]; 6 days): 1.26 area units
- GC peak area, retention time 13.6 ([4]; 6 days): 1.997 area units
- GC peak area, retention time 13.8 ([4]; 6 days): 3.211 area units
- SubTotal peak area, later peaks eluting after 13 minutes ([4]; 6 days): 6.468 area units
- SubTotal peak area, peaks eluting before 13 minutes ([4]; 6 days): 22.933 area units
- Total GC area For 1 ml ([4]; 6 days): 1385
- Total of all selected peaks ([4]; 6 days): 29.401 area units
- Total GC (all peaks integrated by the GC integrator) ([4]; 6 days): 429.5 area units
- conv. To umoles FA ([4]; 6 days): 13.85 µmol
- Cal. AN (calculated acid number) ([4]; 6 days): 0.78 mg of KOH
- GC peak area, retention time 4.2 ([4]; 12 days): 0.354 area units
- GC peak area, retention time 4.5 ([4]; 12 days): 0.237 area units
- GC peak area, retention time 5.6 ([4]; 12 days): 0.624 area units
- GC peak area, retention time 6.6 ([4]; 12 days): 1.498 area units
- GC peak area, retention time 7.6 ([4]; 12 days): 1.246 area units
- GC peak area, retention time 8.2 ([4]; 12 days): 0.602 area units
- GC peak area, retention time 8.5 ([4]; 12 days): 0.624 area units
- GC peak area, retention time 9.4 ([4]; 12 days): 0.476 area units
- GC peak area, retention time 10.2 ([4]; 12 days): 0.475 area units
- GC peak area, retention time 11 ([4]; 12 days): 1.663 area units
- GC peak area, retention time 11.5 ([4]; 12 days): 3.922 area units
- GC peak area, retention time 12.3 ([4]; 12 days): 3.095 area units
- GC peak area, retention time 13 ([4]; 12 days): 2.495 area units
- GC peak area, retention time 13.2 ([4]; 12 days): 3.584 area units
- GC peak area, retention time 13.4 ([4]; 12 days): 3.088 area units
- GC peak area, retention time 13.6 ([4]; 12 days): 2.779 area units
- GC peak area, retention time 13.8 ([4]; 12 days): 4.626 area units
- GC peak area, retention time 14.2 ([4]; 12 days): 0.762 area units
- SubTotal peak area, later peaks eluting after 13 minutes ([4]; 12 days): 17.334 area units
- SubTotal peak area, peaks eluting before 13 minutes ([4]; 12 days): 14.816 area units
- Total GC area For 1 ml ([4]; 12 days): 828
- Total of all selected peaks ([4]; 12 days): 32.15 area units
- Total GC (all peaks integrated by the GC integrator) ([4]; 12 days): 256.8 area units
- conv. To umoles FA ([4]; 12 days): 8.28 µmol
- Cal. AN (calculated acid number) ([4]; 12 days): 0.46 mg of KOH

Structure (SMILES): O=C(O)c1ccccc1O [Salicylic acid]
- effect on 3-ketoacyl-CoA thiolase in P. fluorescens [5]: inhibit

Structure (SMILES): CC(C)CCCCCCCCC[C@@H]1CC(=O)N[C@@H](CCC(=O)O)C(=O)N[C@@H](CC(C)C)C(=O)N[C@H](CC(C)C)C(=O)N[C@@H](C(C)C)C(=O)N[C@@H](CC(=O)O)C(=O)N[C@H](CC(C)C)C(=O)N[C@@H](CC(C)C)C(=O)O1 [Surfactin (purified)] (EL[dL]VD[dL]L; linker N-C via X1)
- Clear zone diameter [6]: 13 mm
